{"source": "patent US20260108476A1", "about": "“2,4 DNP and Prodrugs Thereof for Treatment of Cancer” (priority 2021, published 2026)", "key": {"MCF10A/NLS-DAO cells": {"system": "MCF10A/NLS-DAO cells", "assay": "Western blot of EMT markers in MCF10A/NLS-DAO cells", "assay_type": "cell-based", "conditions": "D-Ala 10 nM, activation of nuclear ROS", "experimental": "FIG. 1B is a graph of experimental data showing the quantification of the relative levels of nuclear ROS shown as the ratio of fluorescence between the oxidized and reduced forms. FIG. 1C is a Western blot analysis showing increased EMT markers after activation of nuclear ROS with D-Ala (10 nM). FIG. 1D is a graph of experimental data showing proliferation curves comparing naïve (MCF10A) and D-Ala (10 nM) exposed MCF10A/NLS-DAO cells. Results are averages of at least 5 biologic replicates with (*) representing p<0.05.\nNuclear ROS are sufficient and required to activate EMT and metastasis of breast cancer cells. ROS levels were measured in the nuclei of different breast cancer cell lines displaying vastly different tumorigenicity and metastatic potential using novel NLS-Orp1roGFP2 biosensors. […] Also, transformation of MCF10A by v-Src promoted a marked increase in nuclear ROS levels (FIGS. 1A & B). […] To directly link nuclear ROS with aggressive cancer behavior, a nucleus-targeted system (NLS-D-amino acid oxidase, NLS-DAO) was engineered that allows to generate ROS21 directly in the nucleus and expressed it into MCF10A cells to recreate, using a non-transformed cell background, this distinctive feature of metastatic breast cancer cell lines. […]"}, "[1]": {"conditions": "at the doses proposed", "experimental": "The hypothesis that mitigating mitochondrial dysfunction via scavenging ROS prevents chromatin changes that promote treatment resistance is tested using DNP, a compound in development with uncoupling activity already in Phase I trials for Huntington's Disease. DNP works largely by reducing the mitochondrial electrochemical potential reducing the output of ROS."}, "wildtype mice": {"system": "wildtype mice", "conditions": "chronic, extraordinarily low dose; cited from earlier work"}, "ion channels": {"system": "ion channels", "assay": "inhibition of ion channels", "text": "(§1) In one embodiment, the compositions and methods of the disclosure relate to targeting oxidative stress upstream at the mitochondria that may be causative for many disorders, including, but not limited to, cancer, pain, and/or pain related conditions. There have been a variety of attempts to lower cellular stress, such as administering anti-oxidants, however these drugs have limited tissue penetration into the brain and lower ROSs after they have been formed. […] While not being bound to theory, it is postulated that DNP modulates the mitochondrial membrane potential having a significant impact at preventing ROS formation in isolated mitochondria and in the treated wildtype mice. DNP treatment 3-hours post-ischemia reduced cerebral infarct volume 40% by protecting the penumbra or “threaten tissue” and could provide similar benefits after a blast to protect inner hair cells from eminent cell death. DNP comes with the benefits of known risks as it was used 80-years ago for weight loss at high doses (˜300 mg) in over 100,000 people, however shown recently in models of neurodegeneration at very low hermetic doses to improve cognition and learning. The pharmacology, which is pleiotropic, appears to provide broad neuroprotection by lowering ROS/mTOR and increasing protective factors such as CAMP, CREB, and BDNF, could be useful for treating hearing loss."}, "[2]": {"assay": "pharmacokinetics of DNP in rats", "assay_type": "in vivo"}, "28-day toxicity studies": {"assay": "28-day toxicity studies", "assay_type": "in vivo", "conditions": "low doses", "text": "as §1"}, "[3]": {"system": "BT474 NLS Orp roGFP cells", "assay": "nuclear ROS by NLS-Orp1roGFP2 biosensor in BT474 cells", "assay_type": "cell-based, human", "conditions": "BT474, varying concentrations of DNP, 24 hours", "experimental": "(§2) FIGS. 3A-3C show how DNP suppresses nuclear ROS in basal BT breast cancer cell lines.\n(§3) Nuclear ROS are sufficient and required to activate EMT and metastasis of breast cancer cells. ROS levels were measured in the nuclei of different breast cancer cell lines displaying vastly different tumorigenicity and metastatic potential using novel NLS-Orp1roGFP2 biosensors. […] Also, transformation of MCF10A by v-Src promoted a marked increase in nuclear ROS levels (FIGS. 1A & B). […] To directly link nuclear ROS with aggressive cancer behavior, a nucleus-targeted system (NLS-D-amino acid oxidase, NLS-DAO) was engineered that allows to generate ROS21 directly in the nucleus and expressed it into MCF10A cells to recreate, using a non-transformed cell background, this distinctive feature of metastatic breast cancer cell lines. […] Next, it was tested whether nuclear ROS contributed to treatment failure by promoting resistance to first line chemotherapeutic drugs, i.e. doxorubicin. It was also tested whether removing suppressing ROS specifically in the nucleus restored sensitivity to doxorubicin. The strategy of removing ROS from the nucleus is novel, targets a feature that seems unique to cancer cells and preserves redox signaling that happen in large part in the cytosol22. […]"}, "Caco-2": {"system": "Caco-2", "assay": "Caco-2", "assay_type": "in vitro ADME", "text": "as §1"}, "[4]": {"system": "models of neurodegeneration", "conditions": "very low hermetic doses; cited from earlier work"}, "[5]": {"conditions": "treatment 3-hours post-ischemia; cited from earlier work"}, "BT20 NLS Orp roGFP cells": {"system": "BT20 NLS Orp roGFP cells", "assay": "nuclear ROS by NLS-Orp1roGFP2 biosensor in BT20 cells", "assay_type": "cell-based, human", "conditions": "BT20, varying concentrations of DNP, 24 hours", "experimental": "as §2, §3"}, "CYP": {"system": "CYP", "assay": "inhibition of CYP", "assay_type": "in vitro ADME", "text": "as §1"}, "A2780, M248, MES-SA, MX2": {"system": "A2780, M248, MES-SA, MX2", "assay": "chromatin folding by PWS microscopy in cell line models", "assay_type": "cell-based", "conditions": "for chromatin folding (structural alterations): FIG. 5A, five cell line models", "text": "FIG. 5A is a graph showing structural alterations due to taxol treatment (Paclitaxel or Docetaxel) in contrast to digoxin for five cell line models (A2780, M248, MES-SA, MX2). Chemotherapeutic intervention increases while CPT agent (digoxin) decreases chromatin folding. Error bars: S.E. of 5 different cell lines. FIGS. 5B-5C are diagrams showing intercellular (FIG. 5B) and intra-network (FIG. 5C) transcriptional heterogeneity increases in cells treated with chemotherapy and decreases in cells treated with CPTs for critical biological processes: (1) cell cycle, (2) apoptosis, (3) proliferation, (4) transcription, (5) signaling, (6) differentiation, (7) glycolysis, (8) translation, (9) ion transport, (10) metabolism, (11) oxidation/reduction, (12) stress response, and (13) nucleosome assembly. Circle size: the number of genes within a network/process. Color: % change in transcription heterogeneity compared to controls. […] Digoxin reduces chromatin heterogeneity. Arrow: nuclei.\nChromatin is a complex arrangement of DNA wrapped around structural and regulatory proteins that control the expression of genes directly involved in cellular function and phenotype. Local physicochemical changes broadly affect chromatin folding and alter gene expression patterns across the genome. In a non-limiting example, decoding the chromatin folding code and understanding how different agents affect folding dynamics at the nanoscale can be helpful to develop new diagnostic tools. The resolution of optical microscopy is limited by diffraction to >200 nm. Recently, a major breakthrough has been made in the emergence of super-resolution fluorescence microscopy that enabled development of a suite of label-free nanoscale imaging technologies including Partial Wave Spectroscopic (PWS) Microscopy (see, for example, FIG. 4). The main principle of PWS is a previously overlooked phenomenon that while sub-diffractional structures are not resolvable, they are still detectable through the analysis of interference of elastically scattered light. PWS can measure the statistics of macromolecular density distribution within live or fixed cells with sensitivity in the 20-200 nm length scales, which is ideally suited for the characterization of chromatin topology. It was by using PWS (and corroborated by electron microscopy) that heterogenization of chromatin folding was discovered as one of the earliest events in carcinogenesis across multiple cancer types. Consequently, PWS was turned into a robust diagnostics technology (nanocytology) and is now in clinical trials for early screening or prognostication of lung, colon, and prostate cancers."}, "[6]": {"system": "v-Src transformed luciferase-expressing MCF10A xenografts", "assay": "mammary xenograft of v-Src transformed luciferase-expressing MCF10A", "assay_type": "in vivo, NOD/SCID mice", "conditions": "doxorubicin combined with NLS-catalase, 2 months of combined therapies, assessed at month 7", "experimental": "(§4) FIGS. 2A-2B show heightened levels of nuclear ROS in persister chemotherapy-resistance cancer cells. FIG. 2A is a collection of images and graphs showing experimental data generated using NLS-Orp1roGFP2 biosensor to measure ROS in the nucleus of breast cancer cell lines. PY230 murine mammary tumor cells expressing NLS-Orp1roGFP2 were treated with doxorubicin (DXR, 250 nM) for the indicated amounts of times in plots of proliferation as well as fluorescence ratios indicate that persister cells have high levels of nuclear ROS and proliferate in the presence of chemotherapy mimicking clinical chemotherapy resistance where most cells initially die leaving persister ones that rapidly proliferate unabated by treatment. Induction of NLS-catalase, that removes ROS from the nucleus, resensitized persister cells to the killing effects of DXR. […]\nResults in FIG. 2A, closely recapitulate the reality of most clinical cancer treatments that are effective at first eliminating the bulk tumor but that are become ineffective when the disease recur. […] Three months after implantation, metastases were clearly detected by luciferin-induced bioluminescence in the chest and head of most mice FIG. 2B. […]"}, "[7]": {"system": "PY230 murine mammary tumor cells", "assay": "proliferation of PY230 cells under doxorubicin", "assay_type": "cell-based", "conditions": "DXR 250 nM, within a few hours from application", "experimental": "as §4, with “DXR. FIG. 2B is a collection of images showing mammary xenografts of luciferase-labeled transformed MCF10A constitutively expressing NLS-catalase under an inducible promoter rapidly grow and metastasize within 3 months of implantation.” for “DXR.”\nNuclear ROS are sufficient and required to activate EMT and metastasis of breast cancer cells. ROS levels were measured in the nuclei of different breast cancer cell lines displaying vastly different tumorigenicity and metastatic potential using novel NLS-Orp1roGFP2 biosensors. […]"}}, "note": "“Also recorded” adds a separate entry of the source."}
{"smiles": "C[C@@H](N)C(=O)O", "note": "[D-Ala]", "values": [{"measurement": "EMT markers", "setting": "MCF10A/NLS-DAO cells", "value": "increased"}]}
{"smiles": "O=[N+]([O-])c1ccc(O)c([N+](=O)[O-])c1", "note": "[DNP, 2,4-dinitrophenol]", "values": [{"measurement": "safety", "setting": "[1]", "value": "safe"}, {"measurement": "lifespan versus untreated mice", "setting": "wildtype mice", "value": "living longer than untreated mice"}, {"measurement": "inhibition of ion channels", "setting": "ion channels", "value": "no inhibition"}, {"measurement": "distribution", "setting": "[2]", "value": "good"}, {"measurement": "oral bioavailability", "setting": "[2]", "value": "orally bioavailable"}, {"measurement": "half-life", "setting": "[2]; rat, plasma", "value": "~360", "unit": "min"}, {"measurement": "Safety Index", "setting": "28-day toxicity studies; 28-day toxicity studies", "value": "≥ 10", "unit": "×"}, {"measurement": "toxicity", "setting": "28-day toxicity studies; 28-day", "value": "not toxic"}, {"measurement": "levels of nuclear ROS (ox/red Orp1roGFP2 ratio)", "setting": "[3]", "value": "strongly suppresses; also recorded: clear concentration dependence of nROS reduction"}, {"measurement": "inhibition, Caco-2", "setting": "Caco-2", "value": "no inhibition"}, {"measurement": "cognition and learning", "setting": "[4]", "value": "improve"}, {"measurement": "reduction of cerebral infarct volume", "setting": "[5]", "value": 40, "unit": "%"}, {"measurement": "levels of nuclear ROS (ox/red Orp1roGFP2 ratio)", "setting": "BT20 NLS Orp roGFP cells", "value": "strongly suppresses; also recorded: clear concentration dependence of nROS reduction"}, {"measurement": "inhibition of CYP", "setting": "CYP", "value": "no inhibition"}]}
{"smiles": "CC(=O)O[C@@]12CO[C@@H]1C[C@H](O)[C@@]1(C)C(=O)[C@H](O)C3=C(C)[C@@H](OC(=O)[C@H](O)[C@@H](NC(=O)OC(C)(C)C)c4ccccc4)C[C@@](O)([C@@H](OC(=O)c4ccccc4)[C@H]21)C3(C)C", "note": "[Docetaxel]", "values": [{"measurement": "chromatin folding (structural alterations)", "setting": "A2780, M248, MES-SA, MX2", "value": "increases"}]}
{"smiles": "CC(=O)O[C@H]1C(=O)[C@@]2(C)[C@H]([C@H](OC(=O)c3ccccc3)[C@]3(O)C[C@H](OC(=O)[C@H](O)[C@@H](NC(=O)c4ccccc4)c4ccccc4)C(C)=C1C3(C)C)[C@]1(OC(C)=O)CO[C@@H]1C[C@@H]2O", "note": "[Paclitaxel]", "values": [{"measurement": "chromatin folding (structural alterations)", "setting": "A2780, M248, MES-SA, MX2", "value": "increases"}]}
{"smiles": "C[C@H]1O[C@@H](O[C@H]2[C@@H](O)C[C@H](O[C@H]3[C@@H](O)C[C@H](O[C@H]4CC[C@@]5(C)[C@H](CC[C@@H]6[C@@H]5C[C@@H](O)[C@]5(C)[C@@H](C7=CC(=O)OC7)CC[C@]65O)C4)O[C@@H]3C)O[C@@H]2C)C[C@H](O)[C@@H]1O", "note": "[digoxin]", "values": [{"measurement": "chromatin folding (structural alterations)", "setting": "A2780, M248, MES-SA, MX2", "value": "decreases"}, {"measurement": "chromatin heterogeneity, live cell PWS", "setting": "A2780, M248, MES-SA, MX2; FIG. 5D", "value": "reduces"}]}
{"smiles": "COc1cccc2c1C(=O)c1c(O)c3c(c(O)c1C2=O)C[C@@](O)(C(=O)CO)C[C@@H]3O[C@H]1C[C@H](N)[C@H](O)[C@H](C)O1", "note": "[doxorubicin]", "values": [{"measurement": "metastatic disease and primary tumor (bioluminescence)", "setting": "[6]", "value": "complete remission of metastatic disease as well as significant regression of primary tumor"}, {"measurement": "effect on cell population (proliferation)", "setting": "[7]", "value": "eliminated the bulk of cells"}]}
